# Test results published in ChEMBL document CHEMBL2440076, “New triarylpyrazoles as broad-spectrum anticancer agents: design, synthesis, and biological evaluation” (Eur J Med Chem, 2013).
# pIC50: −log10 of the molar value.
# Columns and labels:
# OVCAR-8 = assay: Growth inhibition of human OVCAR8 cells after 48 hrs by sulforhodamine B assay; format: functional; conditions: OVCAR-8, 48 h
# IGROV-1 = assay: Growth inhibition of human IGROV1 cells after 48 hrs by sulforhodamine B assay; format: functional; conditions: IGROV-1, 48 h
# SK-OV-3 = assay: Growth inhibition of human SKOV3 cells after 48 hrs by sulforhodamine B assay; format: functional; conditions: SK-OV-3, 48 h
# SK-MEL-28 = assay: Growth inhibition of human SK-MEL-28 cells after 48 hrs by sulforhodamine B assay; format: functional; conditions: SK-MEL-28, 48 h
# HT-29 = assay: Growth inhibition of human HT-29 cells assessed as cell growth at 10 uM after 48 hrs by sulforhodamine B assay; format: functional; conditions: HT-29, 48 h, read-out: Activity
# [1] = Growth inhibition of human Hs 578T cells assessed as cell growth at 10 uM after 48 hrs by sulforhodamine B assay; format: functional; conditions: read-out: Activity
# UACC-62 = assay: Growth inhibition of human UACC62 cells after 48 hrs by sulforhodamine B assay; format: functional; conditions: UACC-62, 48 h
# K562 = assay: Growth inhibition of human K562 cells assessed as cell growth at 10 uM after 48 hrs by sulforhodamine B assay; format: functional; conditions: K562, 48 h, read-out: Activity
# U-251 = assay: Growth inhibition of human U251 cells after 48 hrs by sulforhodamine B assay; format: functional; conditions: U-251, 48 h
# DU-145 = assay: Growth inhibition of human DU145 cells assessed as cell growth at 10 uM after 48 hrs by sulforhodamine B assay; format: functional; conditions: DU-145, 48 h, read-out: Activity
# KM12 = assay: Growth inhibition of human KM12 cells assessed as cell growth at 10 uM after 48 hrs by sulforhodamine B assay; format: functional; conditions: KM12, 48 h, read-out: Activity
# COLO 205 = assay: Growth inhibition of human COLO205 cells assessed as cell growth at 10 uM after 48 hrs by sulforhodamine B assay; format: functional; conditions: COLO 205, 48 h, read-out: Activity
# HOP-62 = assay: Growth inhibition of human HOP62 cells after 48 hrs by sulforhodamine B assay; format: functional; conditions: HOP-62, 48 h
# UACC-257 = assay: Growth inhibition of human UACC257 cells assessed as cell growth at 10 uM after 48 hrs by sulforhodamine B assay; format: functional; conditions: UACC-257, 48 h, read-out: Activity
# SN12C = assay: Growth inhibition of human SN12C cells after 48 hrs by sulforhodamine B assay; format: functional
# MDA-MB-468 = assay: Growth inhibition of human MDA-MB-468 cells assessed as cell growth at 10 uM after 48 hrs by sulforhodamine B assay; format: functional; conditions: MDA-MB-468, 48 h, read-out: Activity
# MOLT-4 [2] = assay: Growth inhibition of human MOLT4 cells assessed as cell growth at 10 uM after 48 hrs by sulforhodamine B assay; format: functional; conditions: MOLT-4, 48 h, read-out: Activity
# 786-0 = assay: Growth inhibition of human 786-0 cells after 48 hrs by sulforhodamine B assay; format: functional; conditions: 786-0, 48 h
# BT-549 = assay: Growth inhibition of human BT549 cells assessed as cell growth at 10 uM after 48 hrs by sulforhodamine B assay; format: functional; conditions: BT-549, 48 h, read-out: Activity
# HCT-116 = assay: Growth inhibition of human HCT116 cells assessed as cell growth at 10 uM after 48 hrs by sulforhodamine B assay; format: functional; conditions: HCT-116, 48 h, read-out: Activity
# SF-268 = assay: Growth inhibition of human SF268 cells after 48 hrs by sulforhodamine B assay; format: functional; conditions: SF-268, 48 h
# ACHN = assay: Growth inhibition of human ACHN cells after 48 hrs by sulforhodamine B assay; format: functional
# NCI-H522 = assay: Growth inhibition of human NCI-H522 cells after 48 hrs by sulforhodamine B assay; format: functional; conditions: NCI-H522, 48 h
# SR = assay: Growth inhibition of human SR cells after 48 hrs by sulforhodamine B assay; format: functional
# MDA-MB-231 = assay: Growth inhibition of human MDA-MB-231 cells assessed as cell growth at 10 uM after 48 hrs by sulforhodamine B assay; format: functional; conditions: MDA-MB-231, 48 h, read-out: Activity
# HL-60(TB) = assay: Growth inhibition of human HL-60(TB) cells after 48 hrs by sulforhodamine B assay; format: functional; conditions: HL-60, 48 h
# M14 = assay: Growth inhibition of human M14 cells after 48 hrs by sulforhodamine B assay; format: functional; conditions: M14, 48 h
# SF-295 = assay: Growth inhibition of human SF295 cells after 48 hrs by sulforhodamine B assay; format: functional, cell-based; conditions: SF-295, 48 h
# NCI-H226 = assay: Growth inhibition of human NCI-H226 cells assessed as cell growth at 10 uM after 48 hrs by sulforhodamine B assay; format: functional; conditions: NCI-H226, 48 h, read-out: Activity
# SK-MEL-2 = assay: Growth inhibition of human SK-MEL-2 cells after 48 hrs by sulforhodamine B assay; format: functional; conditions: SK-MEL-2, 48 h
# MOLT-4 [3] = assay: Growth inhibition of human MOLT4 cells after 48 hrs by sulforhodamine B assay; format: functional; conditions: MOLT-4, 48 h
# NCI-H23 = assay: Growth inhibition of human NCI-H23 cells assessed as cell growth at 10 uM after 48 hrs by sulforhodamine B assay; format: functional; conditions: NCI-H23, 48 h, read-out: Activity
# TK-10 = assay: Growth inhibition of human TK10 cells assessed as cell growth at 10 uM after 48 hrs by sulforhodamine B assay; format: functional; conditions: TK-10, 48 h, read-out: Activity
# MDA-MB-435 = assay: Growth inhibition of human MDA-MB-435 cells assessed as cell growth at 10 uM after 48 hrs by sulforhodamine B assay; format: functional; conditions: MDA-MB-435, 48 h, read-out: Activity
# [4] = read-out: LC50 (the source's name)
compound,measurement,setting,value
COc1cc(-c2nn(-c3cccc(NC(=O)c4ccc(Cl)c(C(F)(F)F)c4)c3)cc2-c2ccncc2)ccc1Cl,GI50,OVCAR-8,3.35 µM
same,TGI,OVCAR-8,> 32.5 µM
same,CC50,OVCAR-8; [4],> 32.5 µM
same,GI50,IGROV-1,2.15 µM
same,LC50 (concentration killing 50% of cells),IGROV-1,> 32.5 µM
same,TGI,IGROV-1,> 32.5 µM
same,GI50,SK-OV-3,9.29 µM
same,TGI,SK-OV-3,> 32.5 µM
same,CC50,SK-OV-3; [4],> 32.5 µM
same,GI50,SK-MEL-28,3.08 µM
same,LC50,SK-MEL-28,> 32.5 µM
same,TGI,SK-MEL-28,> 32.5 µM
same,growth at 10 µM,HT-29,50.1%
same,growth at 10 µM,[1],34.7%
same,GI50,UACC-62,2.1 µM
same,LC50 (50% lethal concentration),UACC-62,> 32.5 µM
same,TGI,UACC-62,> 32.5 µM
same,growth at 10 µM,K562,8.65%
same,GI50,U-251,3.1 µM
same,LC50 (concentration killing 50% of cells),U-251,> 32.5 µM
same,TGI,U-251,> 32.5 µM
same,growth at 10 µM,DU-145,65.4%
same,growth at 10 µM,KM12,28.8%
same,growth at 10 µM,COLO 205,69.4%
same,GI50,HOP-62,13.1 µM
same,TGI,HOP-62,> 32.5 µM
same,CC50,HOP-62; [4],> 32.5 µM
same,growth at 10 µM,UACC-257,23.5%
same,GI50,SN12C,11.2 µM
same,TGI,SN12C,> 32.5 µM
same,CC50,SN12C; [4],> 32.5 µM
same,growth at 10 µM,MDA-MB-468,54.4%
same,growth at 10 µM,MOLT-4 [2],20.3%
same,GI50,786-0,11 µM
same,TGI,786-0,> 32.5 µM
same,CC50,786-0; [4],> 32.5 µM
same,growth at 10 µM,BT-549,49.7%
same,growth at 10 µM,HCT-116,24%
same,GI50,SF-268,4.86 µM
same,TGI,SF-268,> 32.5 µM
same,CC50,SF-268; [4],> 32.5 µM
same,GI50,ACHN,2.73 µM
same,TGI,ACHN,> 32.5 µM
same,CC50,ACHN; [4],> 32.5 µM
same,GI50,NCI-H522,1.04 µM
same,LC50 (concentration killing 50% of cells),NCI-H522,> 32.5 µM
same,TGI,NCI-H522,13.4 µM
same,GI50,SR,0.848 µM
same,TGI,SR,> 32.5 µM
same,CC50,SR; [4],> 32.5 µM
same,growth at 10 µM,MDA-MB-231,25.8%
same,GI50,HL-60(TB),5.48 µM
same,TGI,HL-60(TB),> 32.5 µM
same,CC50,HL-60(TB); [4],> 32.5 µM
same,GI50,M14,2.79 µM
same,LC50 (concentration killing 50% of cells),M14,> 32.5 µM
same,TGI,M14,> 32.5 µM
same,GI50,SF-295,1.38 µM
same,pIC50,SF-295,5.86
same,TGI,SF-295,17.3 µM
same,CC50,SF-295; [4],> 32.5 µM
same,growth at 10 µM,NCI-H226,56.3%
same,GI50,SK-MEL-2,1.9 µM
same,LC50 (50% lethal concentration),SK-MEL-2,> 32.5 µM
same,TGI,SK-MEL-2,19.7 µM
same,GI50,MOLT-4 [3],5.24 µM
same,TGI,MOLT-4 [3],> 32.5 µM
same,CC50,MOLT-4 [3]; [4],> 32.5 µM
same,growth at 10 µM,NCI-H23,58.9%
same,growth at 10 µM,TK-10,69.5%
same,growth at 10 µM,MDA-MB-435,-26.8%
